Patent US9352013B2, “Uses of bremelanotide in therapy for female sexual dysfunction” (Palatin Technologies, Inc., priority 2012, dated 2016)
Marks after values point to notes of the source that are not given here.

Assays:
[1] = Example 1: ambulatory blood pressure monitoring; assay type: in vivo, human; conditions: for SBP: treatment group difference (from placebo) in mean change from single-blind placebo / DBP: treatment group difference (from placebo) in mean change from single-blind placebo: in mmHg (unit assumed); for HR-BP Product: treatment group difference (from placebo) in mean change from single-blind placebo: in mmHg·bpm (unit assumed); for Pulse: treatment group difference (from placebo) in mean change from single-blind placebo: in bpm (unit assumed)
Description: Ambulatory blood pressure monitoring was conducted following both placebo and randomized treatment group in-clinic administrations. Three periods of ambulatory blood pressure monitoring were included, the first period was from before to 24 hours after a single, in-clinic dose of placebo (to establish a baseline); the second and third periods occurred from before to 24 hours after each of 2 single, in-clinic doses of double-blind treatment, administered within 14 days of each other. Blood samples for pharmacokinetic analysis were collected before and at 0.5, 1.0, and 2.0 hours after each in-clinic bremelanotide single-dose treatment (double-blind only), to permit analysis of concentration-response relationships.
Mean changes in blood pressure were characterized in all subjects based on sequential supervised dosing of single-blind subcutaneous placebo and two doses of randomized study drug. The primary analysis for mean changes was the difference between treatment groups in the change from single-blind placebo to randomized drug (Visit 2 vs. Visits 5/7). There were between 86 to 100 subjects in each dose group.
Although there were an increased number of outliers for maximal changes from baseline in systolic blood pressure in drug-treated patients, the duration of these events was quite limited. The interrogation interval during ambulatory blood pressure monitoring assessments of 15 minutes allowed definition of the maximal duration of such excursions. […] The clinical significance of such changes, if any, is small.

[2] = Subcutaneous trial in males: vomiting; assay type: in vivo, human; conditions: males
Description: In a trial in males, 1 of 6 subjects at the 5-mg dose level, 1 of 6 subjects at the 7.5 mg dose level, and 3 of 6 subjects at the 10-mg dose level experienced vomiting that was mild or moderate in intensity and delayed 6 to 15 hours.

female rats = conditions: cited from earlier work
[3] = system: women diagnosed with sexual arousal disorder; conditions: single intranasal dose of 20 mg; cited from earlier work
[4] = 1.25 mg SC, interval 8-24 h, V5
[5] = 1.25 mg SC, interval 8-24 h, V7
[6] = 1.75 mg SC, interval 0-24 h, V5
[7] = 1.75 mg SC, interval 0-24 h, V7
[8] = 1.75 mg SC, interval 8-24 h, V5
[9] = 1.75 mg SC, interval 8-24 h, V7

SMILES: CCCC[C@H](NC(C)=O)C(=O)N[C@H]1CC(=O)NCCCC[C@@H](C(=O)O)NC(=O)[C@H](Cc2c[nH]c3ccccc23)NC(=O)[C@H](CCCNC(=N)N)NC(=O)[C@@H](Cc2ccccc2)NC(=O)[C@H](Cc2c[nH]cn2)NC1=O [bremelanotide, Ac-Nle-cyclo(-Asp-His-D-Phe-Arg-Trp-Lys)-OH]
- SBP: treatment group difference (from placebo) in mean change from single-blind placebo ([1]; 1.25 mg SC, interval 4-8 h, V5): 1.4
- HR-BP Product: treatment group difference (from placebo) in mean change from single-blind placebo ([1]; 1.25 mg SC, interval 4-8 h, V5): −621.0*
- Pulse: treatment group difference (from placebo) in mean change from single-blind placebo ([1]; 1.25 mg SC, interval 4-8 h, V7): −6.5*
- DBP: treatment group difference (from placebo) in mean change from single-blind placebo ([1]; 1.25 mg SC, interval 4-8 h, V7): 0.9
- SBP: treatment group difference (from placebo) in mean change from single-blind placebo ([1]; 1.25 mg SC, interval 4-8 h, V7): 1.3*
- HR-BP Product: treatment group difference (from placebo) in mean change from single-blind placebo ([1]; 1.25 mg SC, interval 4-8 h, V7): −669.7*
- Pulse: treatment group difference (from placebo) in mean change from single-blind placebo [1, 4]: −1.5
- DBP: treatment group difference (from placebo) in mean change from single-blind placebo [1, 4]: 1.4*
- SBP: treatment group difference (from placebo) in mean change from single-blind placebo [1, 4]: 0.7
- HR-BP Product: treatment group difference (from placebo) in mean change from single-blind placebo [1, 4]: −127.4
- Pulse: treatment group difference (from placebo) in mean change from single-blind placebo [1, 5]: −0.7
- DBP: treatment group difference (from placebo) in mean change from single-blind placebo [1, 5]: 1.7*
- SBP: treatment group difference (from placebo) in mean change from single-blind placebo [1, 5]: 1.5*
- HR-BP Product: treatment group difference (from placebo) in mean change from single-blind placebo [1, 5]: 4.2
- Systolic blood pressure shifts: ΔSBP >10 mmHg, Duration >30 minutes ([1]; 1.75 mg SC): 0
- Systolic blood pressure shifts: ΔSBP >15 mmHg, Duration >30 minutes ([1]; 1.75 mg SC): 0
- Pulse: treatment group difference (from placebo) in mean change from single-blind placebo ([1]; 1.75 mg SC, interval 0-4 h, V5): −4.6*
- DBP: treatment group difference (from placebo) in mean change from single-blind placebo ([1]; 1.75 mg SC, interval 0-4 h, V5): 3.2*
- SBP: treatment group difference (from placebo) in mean change from single-blind placebo ([1]; 1.75 mg SC, interval 0-4 h, V5): 3.1*
- HR-BP Product: treatment group difference (from placebo) in mean change from single-blind placebo ([1]; 1.75 mg SC, interval 0-4 h, V5): −305.9
- Pulse: treatment group difference (from placebo) in mean change from single-blind placebo ([1]; 1.75 mg SC, interval 0-4 h, V7): −4.7*
- DBP: treatment group difference (from placebo) in mean change from single-blind placebo ([1]; 1.75 mg SC, interval 0-4 h, V7): 2.6*
- SBP: treatment group difference (from placebo) in mean change from single-blind placebo ([1]; 1.75 mg SC, interval 0-4 h, V7): 2.5*
- HR-BP Product: treatment group difference (from placebo) in mean change from single-blind placebo ([1]; 1.75 mg SC, interval 0-4 h, V7): −375.4*
- Pulse: treatment group difference (from placebo) in mean change from single-blind placebo [1, 6]: −2.2*
- DBP: treatment group difference (from placebo) in mean change from single-blind placebo [1, 6]: 1.9*
- SBP: treatment group difference (from placebo) in mean change from single-blind placebo [1, 6]: 1.6
- HR-BP Product: treatment group difference (from placebo) in mean change from single-blind placebo [1, 6]: −139.1
- Pulse: treatment group difference (from placebo) in mean change from single-blind placebo [1, 7]: −2.2*
- DBP: treatment group difference (from placebo) in mean change from single-blind placebo [1, 7]: 1.8*
- SBP: treatment group difference (from placebo) in mean change from single-blind placebo [1, 7]: 1.3
- HR-BP Product: treatment group difference (from placebo) in mean change from single-blind placebo [1, 7]: −184.1
- Pulse: treatment group difference (from placebo) in mean change from single-blind placebo ([1]; 1.75 mg SC, interval 4-8 h, V5): −6.6*
- DBP: treatment group difference (from placebo) in mean change from single-blind placebo ([1]; 1.75 mg SC, interval 4-8 h, V5): 2.3*
- SBP: treatment group difference (from placebo) in mean change from single-blind placebo ([1]; 1.75 mg SC, interval 4-8 h, V5): 2.1
- HR-BP Product: treatment group difference (from placebo) in mean change from single-blind placebo ([1]; 1.75 mg SC, interval 4-8 h, V5): −608.1*
- Pulse: treatment group difference (from placebo) in mean change from single-blind placebo ([1]; 1.75 mg SC, interval 4-8 h, V7): −6.6*
- DBP: treatment group difference (from placebo) in mean change from single-blind placebo ([1]; 1.75 mg SC, interval 4-8 h, V7): 2.2*
- SBP: treatment group difference (from placebo) in mean change from single-blind placebo ([1]; 1.75 mg SC, interval 4-8 h, V7): 2.2
- HR-BP Product: treatment group difference (from placebo) in mean change from single-blind placebo ([1]; 1.75 mg SC, interval 4-8 h, V7): −624.5*
- Pulse: treatment group difference (from placebo) in mean change from single-blind placebo [1, 8]: −0.8
- DBP: treatment group difference (from placebo) in mean change from single-blind placebo [1, 8]: 1.4*
- SBP: treatment group difference (from placebo) in mean change from single-blind placebo [1, 8]: 0.9
- HR-BP Product: treatment group difference (from placebo) in mean change from single-blind placebo [1, 8]: −23.7
- Pulse: treatment group difference (from placebo) in mean change from single-blind placebo [1, 9]: −0.5
- DBP: treatment group difference (from placebo) in mean change from single-blind placebo [1, 9]: 1.4
- SBP: treatment group difference (from placebo) in mean change from single-blind placebo [1, 9]: 0.6
- HR-BP Product: treatment group difference (from placebo) in mean change from single-blind placebo [1, 9]: −31.3
- Subjects who experienced vomiting ([2]; 7.5 mg dose level): 1 of 6
- Subjects who experienced vomiting ([2]; 5-mg dose level): 1 of 6
- Subjects who experienced vomiting ([2]; 10-mg dose level): 3 of 6
- Effect on appetitive sexual behavior (female rats): selective pharmacological effect on appetitive sexual behavior was observed
- Dopamine release in the medial preoptic area (female rats; subcutaneous injections): increasing dopamine release
- Immediate-early gene product Fos in limbic and hypothalamic structures (female rats; subcutaneous injections): inducing
- Vaginal pulse amplitude measures compared to placebo [3]: without statistically relevant differences
